The record followed here is patent US20080206194A1, “Method for the treatment of breast cancer” (priority 2007, published 2008).

Entries after “also recorded” stand apart in the source; their conditions may differ.

In one experiment the test system is ERα. Put plainly: ERα detection by immunochemical staining of DMBA/progestin-induced mammary carcinomas. The following applies: wild-type FVB mice, medroxyprogesterone/DMBA-induced carcinogenesis, 40 mg/kg subcutaneously, weekly, for 12 weeks, rabbit polyclonal antibody. It is filed as in vivo. How it is done: FIG. 1 illustrates ER detection by immunochemical staining with a rabbit polyclonal antibody of dimethylbenz(α)anthracene (DMBA)/progestin-induced mammary carcinomas of wild-type FVB mice, transgenic MMTV-Pax8PPARγ FVB mice and GW9662-treated mice, with 40 mg/kg, subcutaneously, weekly, for 12 weeks.
Mammary carcinogenesis was induced in female wild-type FVB/N or MMTV-Pax8PPARγ transgenic mice purchased from Charles River Laboratories (Wilmington, Mass.) by subcutaneous injection of 600 mg/kg medroxyprogesterone acetate suspension (150 mg/ml, Sicor Pharmaceuticals Inc., Irvine, Calif.), followed one week later by four weekly oral doses of 1 mg dimethylbenz(a)anthracene (DMBA) dissolved in cottonseed oil (10 mg/ml). Following the last dose of DMBA, mice were injected subcutaneously once a week with 40 mg/kg GW9662 dissolved in cottonseed oil (10 mg/ml). […]
Mammary carcinomas from transgenic MMTV-Pax8PPARγ FVB mice stained intensely for ERα, particularly in the basal layer of cells, as compared to low ERα staining in ductal epithelium from wild-type FVB mice (see FIG. 1). […] ERα was detected by immunochemical staining with a rabbit polyclonal antibody (Santa Cruz Biotechnology, sc-542) diluted 1:1000.

The next experiment relates to mammary tumors. The experiment can be described thus: Mammary tumor formation after carcinogenesis in Pax8PPARγ transgenic mice. It is filed as in vivo. The following applies: MMTV-Pax8PPARγ transgenic mice, ER(+) carcinomas; 200 mg/kg subcutaneously once a week for three months after carcinogen administration. The procedure: FIG. 2 is a bar graph showing the total number of mammary tumors appearing in transgenic MMTV-Pax8PPARγ FVB mice treated with either vehicle or ERα antagonist fulvestrant, 200 mg/kg subcutaneously once per week for three months after carcinogen administration.
Mammary carcinogenesis (see, e.g., Yin et al., Characterization of medroxyprogesterone and DMBA-induced multilineage mammary tumors by gene expression. Mol. Carcinogenesis 42:pp. 42-50, (2005)) was induced in Pax8PPARγ transgenic mice, which mammary carcinomas are ER(+) and were treated once a week for three months with the ER antagonist fulvestrant at a dose of 200 mg/kg administered subcutaneously in an oil emulsion. […] Each experimental group consisted of 6 mice. FIG. 2 indicates the total number of mammary tumors appearing three months after carcinogen administration.

As for `O=C(Nc1ccccc1)c1cc([N+](=O)[O-])ccc1Cl` [GW9662, 2-Chloro-5-nitrobenzanilide], the “ERα expression (immunochemical staining) in mammary carcinomas” value with ERα was “substantial ERα staining; also recorded: pattern of ERα expression similar to MMTV-Pax8PPARγ mice”.
For `C[C@]12CC[C@@H]3c4ccc(O)cc4C[C@@H](CCCCCCCCC[S+]([O-])CCCC(F)(F)C(F)(F)F)[C@H]3[C@@H]1CC[C@@H]2O` (some centres unmarked) [fulvestrant], the “tumor formation (total number of mammary tumors)” value with mammary tumors is reported as “completely inhibited tumor formation”.
